Columns and labels:
Assay in all cases: radiometric filter-binding kinase assay, Kinase HotSpot
Conditions in all cases: compound 0.5 µM; ATP 10 µM
[1] = molecular target: CDK1 CCNA2 (human) (UniProt P06493+P20248)
[2] = molecular target: CDK1 CCNB1 (human) (UniProt P06493+P14635)
[3] = molecular target: CDK2 CCNA2 (human) (UniProt P24941+P20248)
[4] = molecular target: CDK2 CCNE1 (human) (UniProt P24941+P24864)
[5] = molecular target: CDK3 CCNE1 (human) (UniProt Q00526+P24864)
[6] = molecular target: CDK4 CCND1 (human) (UniProt P24385+P11802)
[7] = molecular target: CDK4 CCND3 (human) (UniProt P30281+P11802)
[8] = molecular target: CDK5 CDK5R1 p25 (human) (UniProt Q00535+Q15078)
[9] = molecular target: CDK5 CDK5R1 p35 (human) (UniProt Q00535+Q15078)
[10] = molecular target: CDK6 CCND1 (human) (UniProt Q00534+P24385)
[11] = molecular target: CDK6 CCND3 (human) (UniProt P30281+Q00534)
[12] = molecular target: CDK7 CCNH MNAT1 (human) (UniProt P50613+P51948+P51946)
[13] = molecular target: CDK9 CCNK (human) (UniProt O75909+P50750)
[14] = molecular target: CDK9 CCNT1 (human) (UniProt P50750+O60563)
[15] = molecular target: DYRK1B (human) (UniProt Q9Y463)
[16] = molecular target: LTK (human) (UniProt P29376)
[17] = molecular target: MAP3K7 TAB1 (human) (UniProt O43318+Q15750)
[18] = molecular target: PRKCH (human) (UniProt P24723)
[19] = molecular target: STK33 (human) (UniProt Q9BYT3)
[20] = tested on: SGK1 (human), O00141 [S422D]
Chain of SGK1 (human), O00141 [S422D] (O00141 whole entry S422D, looked up): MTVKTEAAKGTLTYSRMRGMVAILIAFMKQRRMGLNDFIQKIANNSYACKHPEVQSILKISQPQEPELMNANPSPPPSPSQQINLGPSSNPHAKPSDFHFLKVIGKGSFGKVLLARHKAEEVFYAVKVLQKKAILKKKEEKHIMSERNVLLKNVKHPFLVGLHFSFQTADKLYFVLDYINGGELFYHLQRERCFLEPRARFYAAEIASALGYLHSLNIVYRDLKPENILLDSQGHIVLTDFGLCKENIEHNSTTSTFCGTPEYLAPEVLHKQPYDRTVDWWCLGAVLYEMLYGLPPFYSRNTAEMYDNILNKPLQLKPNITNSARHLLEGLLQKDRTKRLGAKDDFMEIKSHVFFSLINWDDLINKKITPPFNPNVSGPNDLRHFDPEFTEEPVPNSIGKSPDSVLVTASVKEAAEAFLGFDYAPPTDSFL

Chain of CDK1 CCNB1 (human) (P06493 whole entry, looked up): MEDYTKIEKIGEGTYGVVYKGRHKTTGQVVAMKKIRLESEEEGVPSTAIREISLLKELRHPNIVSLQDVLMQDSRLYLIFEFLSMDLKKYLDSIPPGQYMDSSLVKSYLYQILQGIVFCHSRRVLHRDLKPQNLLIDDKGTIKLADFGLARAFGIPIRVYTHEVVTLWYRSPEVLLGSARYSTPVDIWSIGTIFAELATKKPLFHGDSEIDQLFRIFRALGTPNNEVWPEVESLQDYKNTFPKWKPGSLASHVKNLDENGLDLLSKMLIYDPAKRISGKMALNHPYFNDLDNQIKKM
Chain of CDK1 CCNB1 (human) (P14635 whole entry, looked up): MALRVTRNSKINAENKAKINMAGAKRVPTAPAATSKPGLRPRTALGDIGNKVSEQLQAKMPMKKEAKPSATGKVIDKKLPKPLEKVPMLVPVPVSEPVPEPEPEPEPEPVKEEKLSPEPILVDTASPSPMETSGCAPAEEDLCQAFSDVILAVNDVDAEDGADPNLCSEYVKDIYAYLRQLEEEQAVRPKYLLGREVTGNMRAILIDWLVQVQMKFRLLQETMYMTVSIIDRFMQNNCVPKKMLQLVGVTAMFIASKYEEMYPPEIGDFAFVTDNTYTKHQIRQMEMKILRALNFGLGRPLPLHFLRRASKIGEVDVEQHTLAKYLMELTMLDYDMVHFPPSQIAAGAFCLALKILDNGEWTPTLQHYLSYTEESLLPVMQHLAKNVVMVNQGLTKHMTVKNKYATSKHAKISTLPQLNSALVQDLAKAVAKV
Chain of CDK1 CCNA2 (human) (P06493 whole entry, looked up): as the sequence (P06493 whole entry, looked up) above
Chain of CDK1 CCNA2 (human) (P20248 whole entry, looked up): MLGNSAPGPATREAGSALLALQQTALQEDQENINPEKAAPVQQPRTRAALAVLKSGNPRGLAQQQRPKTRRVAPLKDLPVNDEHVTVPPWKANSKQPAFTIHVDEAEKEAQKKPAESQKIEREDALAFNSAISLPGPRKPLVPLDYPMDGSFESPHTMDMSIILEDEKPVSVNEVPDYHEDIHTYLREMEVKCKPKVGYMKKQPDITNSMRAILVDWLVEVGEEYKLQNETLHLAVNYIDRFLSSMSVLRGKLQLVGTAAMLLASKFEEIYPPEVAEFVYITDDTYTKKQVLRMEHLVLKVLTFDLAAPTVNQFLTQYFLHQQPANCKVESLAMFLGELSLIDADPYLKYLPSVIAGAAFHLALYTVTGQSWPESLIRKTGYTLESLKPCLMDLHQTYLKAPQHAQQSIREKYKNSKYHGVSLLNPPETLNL
Chain of CDK2 CCNA2 (human) (P20248 whole entry, looked up, other chains not shown): as the sequence (P20248 whole entry, looked up) above
Chain of CDK9 CCNK (human) (O75909 whole entry, looked up): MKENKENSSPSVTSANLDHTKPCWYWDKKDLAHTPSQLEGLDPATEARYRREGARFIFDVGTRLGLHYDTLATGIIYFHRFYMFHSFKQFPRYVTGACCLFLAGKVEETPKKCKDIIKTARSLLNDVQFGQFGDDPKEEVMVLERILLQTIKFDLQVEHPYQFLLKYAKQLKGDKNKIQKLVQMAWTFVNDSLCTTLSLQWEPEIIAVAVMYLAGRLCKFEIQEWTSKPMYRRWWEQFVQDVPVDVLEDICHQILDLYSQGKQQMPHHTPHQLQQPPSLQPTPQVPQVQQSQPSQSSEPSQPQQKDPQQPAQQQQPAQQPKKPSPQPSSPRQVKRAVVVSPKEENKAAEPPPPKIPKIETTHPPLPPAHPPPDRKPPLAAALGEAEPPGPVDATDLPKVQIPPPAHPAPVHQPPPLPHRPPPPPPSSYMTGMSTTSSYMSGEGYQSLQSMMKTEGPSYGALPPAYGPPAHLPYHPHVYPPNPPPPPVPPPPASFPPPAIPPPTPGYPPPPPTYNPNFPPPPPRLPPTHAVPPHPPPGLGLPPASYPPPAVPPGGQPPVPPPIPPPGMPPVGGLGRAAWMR
Chain of CDK9 CCNK (human) (P50750 whole entry, looked up): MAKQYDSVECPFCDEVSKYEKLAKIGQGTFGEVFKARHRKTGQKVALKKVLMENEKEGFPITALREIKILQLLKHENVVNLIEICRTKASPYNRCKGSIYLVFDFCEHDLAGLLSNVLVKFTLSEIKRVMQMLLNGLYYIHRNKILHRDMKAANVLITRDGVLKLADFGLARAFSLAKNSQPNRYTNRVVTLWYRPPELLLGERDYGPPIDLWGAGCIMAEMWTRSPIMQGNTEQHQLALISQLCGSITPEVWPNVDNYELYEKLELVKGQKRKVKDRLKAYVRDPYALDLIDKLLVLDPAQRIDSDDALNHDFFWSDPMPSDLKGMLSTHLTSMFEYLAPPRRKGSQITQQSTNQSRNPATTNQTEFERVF
Chain of CDK6 CCND3 (human) (P30281 whole entry, looked up): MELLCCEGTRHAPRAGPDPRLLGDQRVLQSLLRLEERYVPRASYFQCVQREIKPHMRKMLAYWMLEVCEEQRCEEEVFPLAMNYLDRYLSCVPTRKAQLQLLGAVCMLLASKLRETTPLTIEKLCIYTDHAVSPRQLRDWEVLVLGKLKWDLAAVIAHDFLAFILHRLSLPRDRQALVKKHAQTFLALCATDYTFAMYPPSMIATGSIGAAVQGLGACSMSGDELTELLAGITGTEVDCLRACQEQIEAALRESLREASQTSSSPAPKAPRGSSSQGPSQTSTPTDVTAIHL
Chain of CDK6 CCND3 (human) (Q00534 whole entry, looked up): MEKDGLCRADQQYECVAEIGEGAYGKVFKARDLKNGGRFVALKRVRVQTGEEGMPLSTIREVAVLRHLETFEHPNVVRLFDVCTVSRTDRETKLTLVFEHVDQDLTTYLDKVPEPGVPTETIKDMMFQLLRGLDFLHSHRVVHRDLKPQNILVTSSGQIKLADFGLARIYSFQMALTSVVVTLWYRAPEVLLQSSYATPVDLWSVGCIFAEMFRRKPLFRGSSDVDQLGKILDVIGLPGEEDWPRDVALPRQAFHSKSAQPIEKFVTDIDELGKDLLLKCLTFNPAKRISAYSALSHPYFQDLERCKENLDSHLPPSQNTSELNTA
Chain of LTK (human) (P29376 whole entry, looked up): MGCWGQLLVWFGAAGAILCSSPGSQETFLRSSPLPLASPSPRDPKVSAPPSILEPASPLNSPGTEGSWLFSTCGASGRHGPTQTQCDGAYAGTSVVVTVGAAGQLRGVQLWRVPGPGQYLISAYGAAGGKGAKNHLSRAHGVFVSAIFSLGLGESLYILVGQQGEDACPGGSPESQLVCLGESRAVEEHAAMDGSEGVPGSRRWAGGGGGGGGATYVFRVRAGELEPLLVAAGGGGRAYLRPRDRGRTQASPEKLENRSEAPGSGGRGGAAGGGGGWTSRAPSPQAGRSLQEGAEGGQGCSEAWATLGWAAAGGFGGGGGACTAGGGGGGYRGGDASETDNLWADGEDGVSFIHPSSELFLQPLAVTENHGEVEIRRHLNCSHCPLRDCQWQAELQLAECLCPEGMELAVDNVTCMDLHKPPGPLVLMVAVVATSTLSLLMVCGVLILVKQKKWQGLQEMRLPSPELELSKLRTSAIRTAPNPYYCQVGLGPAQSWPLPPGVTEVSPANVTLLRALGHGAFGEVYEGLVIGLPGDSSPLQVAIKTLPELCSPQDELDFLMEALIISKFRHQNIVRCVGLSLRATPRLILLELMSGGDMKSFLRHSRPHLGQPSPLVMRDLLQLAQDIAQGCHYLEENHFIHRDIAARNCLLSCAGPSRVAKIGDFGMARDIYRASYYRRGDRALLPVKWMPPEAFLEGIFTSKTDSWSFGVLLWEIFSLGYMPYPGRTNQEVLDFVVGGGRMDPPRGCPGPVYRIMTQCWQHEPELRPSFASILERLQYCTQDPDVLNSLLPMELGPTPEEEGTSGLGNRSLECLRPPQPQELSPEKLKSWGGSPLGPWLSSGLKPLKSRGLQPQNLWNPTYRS
Chain of CDK6 CCND1 (human) (P24385 whole entry, looked up): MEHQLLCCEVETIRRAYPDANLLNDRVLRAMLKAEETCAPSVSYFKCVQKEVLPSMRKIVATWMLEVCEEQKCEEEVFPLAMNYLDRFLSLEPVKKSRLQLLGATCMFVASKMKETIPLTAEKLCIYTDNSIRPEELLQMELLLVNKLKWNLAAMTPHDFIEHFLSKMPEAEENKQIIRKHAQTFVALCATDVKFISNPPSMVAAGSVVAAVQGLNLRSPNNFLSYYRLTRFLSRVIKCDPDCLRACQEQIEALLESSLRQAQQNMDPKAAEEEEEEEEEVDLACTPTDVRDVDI
Chain of CDK6 CCND1 (human) (Q00534 whole entry, looked up): as the sequence (Q00534 whole entry, looked up) above

Row | residual activity [20] [%] | SMILES | further results
1 | – | CC(C)(C)n1nc(Cc2cccc3ccccc23)c2c(N)ncnc21 | residual activity [1]: 94.8%; residual activity [2]: 107%; residual activity [3]: 99.4%; residual activity [4]: 89.6%; residual activity [5]: 87.8%; residual activity [6]: 96.7%; residual activity [7]: 95.8%; residual activity [8]: 109%; residual activity [9]: 95.6%; residual activity [10]: 98.6%; residual activity [11]: 97.3%; residual activity [12]: 100%; residual activity [13]: 81.4%; residual activity [14]: 102%; residual activity [15]: 98.6%; residual activity [16]: 98.2%; residual activity [17]: 99%; residual activity [18]: 92.1%; residual activity [19]: 99.7%
2 | 122 | C#Cc1cccc(Nc2ncnc3cc(OCCOC)c(OCCOC)cc23)c1 | –
3 | 88.4 | CCCCc1c(-c2ccc(OC)cc2)[nH]c2nccnc12 | –
4 | 125 | COc1ccc(OC)c2c(=S)c3ccccc3[nH]c12 | –
5 | 103 | c1ccc(-c2n[nH]cc2-c2ccnc3ccccc23)nc1 | –
6 | 79.1 | Cn1c2ccccc2c2c3c(c4c5ccccc5n(CCC#N)c4c21)CNC3=O | –
7 | 99.1 | CC(C)[C@H](CO)Nc1nc(Nc2cccc(Cl)c2)c2ncn(C(C)C)c2n1 | –
8 | 98 | O=c1cc(N2CCOCC2)oc2c1ccc1ccccc12 | –
9 | 99.4 | CCN(CC)CCCCN1c2ccccc2Oc2ccc(Cl)cc21 | –
10 | 120 | CC[C@@H](CO)Nc1nc(NCc2ccccc2)c2ncn(C(C)C)c2n1 | –
11 | 90.6 | O=c1cc(-c2cccc3c2Sc2ccccc2S3)oc(N2CCOCC2)c1 | –
12 | 93.1 | O=C(NC(NC(=S)Nc1ccc(F)c([N+](=O)[O-])c1)C(Cl)(Cl)Cl)C(c1ccccc1)c1ccccc1 (stereo not drawn) | –
13 | 103 | COc1ccc(S(=O)(=O)N(CCO)c2ccccc2CN(C)C/C=C/c2ccc(Cl)cc2)cc1 | –
14 | 103 | O=C(CCCc1ccc(-c2ccccc2F)cc1)Nc1ccc(O)cc1 | –
15 | 97.2 | CC[n+]1c(/C=C/N(C)c2ccccc2)n(-c2ccccc2)c2ccc(-c3nc4ccccc4s3)cc21 | –
16 | 96.2 | CCCNC(=O)Nc1ccc(Oc2ncnc3cc(OC)c(OC)cc23)cc1Cl | –
17 | 94.4 | CNc1cc2c(Nc3cccc(Br)c3)ncnc2cn1 | –
18 | 91.3 | COc1cc2ncnc(Nc3cccc(Cl)c3)c2cc1OC | –
19 | 74.9 | O=C1NC(=O)C(c2cn(CCCn3ccnc3)c3ccccc23)=C1Nc1ccccc1 | –
20 | 76.7 | O=C(O)/C=C/c1cc(Br)c(Br)c(Br)c1Br | –
21 | 91.3 | O=C1Nc2ccc(Cl)cc2/C1=C/c1cc(Cl)c(O)c(Cl)c1 | –

Row | residual activity [20] [%] | SMILES | further results
22 | 69.1 | O=C1Nc2ccccc2/C1=C1\Nc2ccccc2\C1=N/O | –
23 | 98.7 | COc1ccc(C(=O)Nc2sc3c(c2C(N)=O)CCCC3)cc1OC | –
24 | 103 | COc1cc2ncnc(Nc3ccc(Oc4ccccc4)cc3)c2cc1OC | –
25 | 94.7 | COc1ccc(Cl)cc1NC(=O)Nc1cc(C)nc2ccccc12 | –
26 | 101 | CC(C)N(CCC(=O)c1ccc2ccccc2c1)Cc1ccccc1 | –
27 | 118 | CC(C)c1nn(-c2c(Cl)cccc2Cl)c2nc(Cc3ccc(OCCO)cc3)nc(O)c12 | –
28 | 102 | O=C1NC(=O)/C(=C/c2ccc3c(c2)OC(F)(F)O3)S1 | –
29 | 115 | CC(C)n1cnc2c(Nc3cccc(Cl)c3)nc(NCCO)nc21 | –
30 | 105 | CN([C@@H](Cc1ccc(OS(=O)(=O)c2cccc3cnccc23)cc1)C(=O)N1CCN(c2ccccc2)CC1)S(=O)(=O)c1cccc2cnccc12 | –
31 | 114 | Cc1ccc(NC2=CC(=O)c3sc(C)nc3C2=O)cc1 | –
32 | 84.7 | CCN(CC)C(=O)c1ccc(Nc2nc(OCC3CCCCC3)c3nc[nH]c3n2)cc1 | –
33 | 51 | O=C1Nc2ccccc2/C1=C1/Nc2ccccc2/C1=N\OCCC(O)CO (stereo not drawn) | –
34 | 101 | CO[C@H]1CC2CC[C@@H](C)[C@@](O)(O2)C(=O)C(=O)N2CCCC[C@H]2C(=O)OC([C@H](C)C[C@@H]2CC[C@@H](O)[C@H](OC)C2)CC(=O)[C@H](C)/C=C(\C)[C@@H](O)[C@@H](OC)C(=O)[C@H](C)C[C@H](C)/C=C/C=C/C=C/1C (stereo partly drawn) | –
35 | 99 | Ic1cccc(CSc2nnc(-c3ccncc3)o2)c1 | –
36 | 96.6 | O=S(=O)(c1cccc2cnccc12)N1CCCNCC1 | –
37 | 126 | COc1cc(Nc2c(C#N)cnc3cc(OCCCN4CCN(C)CC4)c(OC)cc23)c(Cl)cc1Cl | –
38 | 101 | COc1cc2nccc(Oc3ccc(NC(=S)NC(=O)c4ccccc4C)cc3)c2cc1OC | –
39 | 105 | O=C1NC(=O)C(c2c[nH]c3ccccc23)=C1c1c[nH]c2ccccc12 | –
40 | 125 | Cc1ccc(Nc2nccc(N(C)c3ccc4c(C)n(C)nc4c3)n2)cc1S(N)(=O)=O | –
41 | 103 | O=c1cc(N2CCNCC2)oc2c(-c3ccccc3)cccc12 | –
42 | 95.9 | Cc1nc2cc3nc(-c4cccs4)cnc3cc2n1C | –

Row | SMILES | residual activity [20] [%] | further results
43 | COc1ccc2c(c[n+](C)c3c4cc5c(cc4ccc23)OCO5)c1OC | 118 | –
44 | COc1ccc2c(c1)/C(=C/c1cnc[nH]1)C(O)=N2 | 71.5 | –
45 | CC(C)(C)c1cc(C=C(C#N)C#N)cc(Br)c1O | 95.3 | –

Reference: the kinase profiling compilation of Christmann-Franck et al. (2016)
